Each molecule was assayed against T1, recombinant human G9a protein (Homo sapiens, UniProt Q96KQ7) (assay: G9a inhibitory activity test (ALPHA)). Details: biotinylated histone H3 peptide (1-21), SAM, read-out: Inhibitory activity (G9a IC50 value).
T1 construct: purchased BPS Bioscience Inc. #51001
T1 sequence (Q96KQ7 785-1210 limits assumed): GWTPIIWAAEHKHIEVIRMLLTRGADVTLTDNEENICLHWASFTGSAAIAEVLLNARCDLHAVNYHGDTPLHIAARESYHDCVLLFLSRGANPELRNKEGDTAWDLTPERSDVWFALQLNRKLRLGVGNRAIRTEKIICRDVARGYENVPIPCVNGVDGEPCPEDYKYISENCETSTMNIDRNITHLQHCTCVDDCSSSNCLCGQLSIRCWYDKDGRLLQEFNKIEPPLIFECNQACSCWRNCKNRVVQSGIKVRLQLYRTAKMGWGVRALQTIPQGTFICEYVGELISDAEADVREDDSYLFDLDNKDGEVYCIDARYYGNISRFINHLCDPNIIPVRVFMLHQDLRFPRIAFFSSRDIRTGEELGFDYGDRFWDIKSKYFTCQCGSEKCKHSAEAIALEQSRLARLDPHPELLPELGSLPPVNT
Format: biochemical
Experimental: The G9a inhibitory activity of each compound was evaluated by measuring the enzymatic activity of G9a by amplified luminescence proximity homogeneous assay (ALPHA). First, 7.5 μL of a dilution of recombinant human G9a protein (BPS Bioscience Inc., #51001) diluted to 0.05 to 0.1 nM with a Tris buffer solution (50 mM Tris-HCl [pH 9.0], 50 mM NaCl, 0.01% Tween-20, 1 mM DTT), and 0.5 μL of the test compound were added to each well of a 384-well microplate (AlphaPlate-384 Shallow Well, PerkinElmer, Inc., #6008359), mixed by vortex, and incubated at room temperature for 10 minutes. 500 nM biotinylated histone H3 peptide (1-21) (AnaSpec Inc., #61702) and 150 μM SAM (Sigma-Aldrich Co. LLC, #A7007) were mixed at 1:1 in advance, and 2 μL of the mixture was added to each well, mixed by vortex, and then incubated at room temperature for 1 hour. AlphaLISA anti-H3K9me2 acceptor beads (PerkinElmer, Inc., #AL117C) and AlphaScreen streptavidin donor beads (PerkinElmer, Inc., #6760002B) were each diluted with an epigenetic buffer (PerkinElmer, Inc., AlphaLISA Epigenetics Buffer Kit #AL008C) to a final concentration of […] after addition. These dilutions were added to the reaction solution in the dark and incubated at room temperature for 1 hour in the dark. Then, measurement was performed using the EnSpire Alpha plate reader (PerkinElmer, Inc., Waltham, Mass., USA). The G9a inhibitory activity of the test compound was calculated as a compound concentration necessary for suppressing G9a enzymatic activity by 50% (IC50 value), by determining the percent inhibition of the compound when the value of a control without the addition of the compound was defined as 0% and the value of a control without the addition of the enzyme was defined as 100%.

| IC50 | Compound |
| --- | --- |
| < 50 nM | CCCCC(NC(=O)c1[nH]c2c(c1C)C(=O)CC(C)(C)C2)C(=O)Nc1ccc(OC2CCN(C)CC2)cc1 (stereo not shown) [Example 1-32] |
| ≥ 200 nM | Cc1c(C(=O)NC(CCC2CC2)C(=O)Nc2ccncc2)[nH]c2c1C(=O)CC(C)(C)C2 (stereo not shown) [Example 1-73] |
| ≥ 200 nM | CCCCC(NC(=O)c1[nH]c2c(c1C)C(=O)CC(C)(C)C2)C(=O)Nc1cc(C)ccc1OC (stereo not shown) [Example 1-38] |
| ≥ 200 nM | CCCCC(NC(=O)c1[nH]c2c(c1C)C(=O)CC(C)(C)C2)C(=O)Nc1ccccc1C(C)C (stereo not shown) [Example 1-12] |
| < 50 nM | CCCCC(NC(=O)c1[nH]c2c(c1C)C(=O)CC(C)(C)C2)C(=O)Nc1ccc(CCN2CCCCC2)cc1 (stereo not shown) [Example 1-4] |
| ≥ 200 nM | CCCCC(NC(=O)c1[nH]c2c(c1C)C(=O)CC(C)(C)C2)C(=O)Nc1cccnc1C (stereo not shown) [Example 1-107] |
| ≥ 200 nM | CCCCC(NC(=O)c1[nH]c2c(c1C)C(=O)CC(C)(C)C2)C(=O)Nc1ccccc1C(F)(F)F (stereo not shown) [Example 1-27] |
| ≥ 200 nM | CCCCC(NC(=O)c1[nH]c2c(c1C)C(=O)CC(C)(C)C2)C(=O)NCc1ccccc1Cl (stereo not shown) [Example 1-41] |
| ≥ 200 nM | CCCCC(NC(=O)c1[nH]c2c(c1C)C(=O)CC(C)(C)C2)C(=O)Nc1ccc2cn[nH]c2c1 (stereo not shown) [Example 1-101] |
| ≥ 200 nM | CCCCC(NC(=O)c1[nH]c2c(c1C)C(=O)CC(C)(C)C2)C(=O)NCc1cccc(Cl)c1 (stereo not shown) [Example 1-42] |
| ≥ 200 nM | CCCCC(NC(=O)c1[nH]c2c(c1C)C(=O)CC(C)(C)C2)C(=O)NCc1cccc(N2CCN(C)CC2)c1 (stereo not shown) [Example 1-92] |
| < 50 nM | CCCCC(NC(=O)c1[nH]c2c(c1C)C(=O)CC(C)(C)C2)C(=O)Nc1ccc(OC2CCN(C)CC2)cc1OC (stereo not shown) [Example 1-8] |
| ≥ 200 nM | CCCCC(NC(=O)c1[nH]c2c(c1C)C(=O)CC(C)(C)C2)C(=O)Nc1ccccc1OC (stereo not shown) [Example 1-11] |
| ≥ 200 nM | CCCCC(NC(=O)c1[nH]c2c(c1C)C(=O)CC(C)(C)C2)C(=O)Nc1ccc2[nH]ccc2c1 (stereo not shown) [Example 1-96] |
| ≥ 200 nM | CCCCC(NC(=O)c1[nH]c2c(c1C)C(=O)CC(C)(C)C2)C(=O)Nc1ccc(C)cc1OC (stereo not shown) [Example 1-37] |
| 50 to 200 nM | CCCCC(NC(=O)c1[nH]c2c(c1C)C(=O)CC(C)(C)C2)C(=O)Nc1ccc(OC2CCN(C)CC2)nc1 (stereo not shown) [Example 1-6] |
| < 50 nM | CCCCC(NC(=O)c1[nH]c2c(c1C)C(=O)CC(C)(C)C2)C(=O)NCc1ccc(CN(C)C)cc1 (stereo not shown) [Example 1-51] |
| ≥ 200 nM | CCCCC(NC(=O)c1[nH]c2c(c1C)C(=O)CC(C)(C)C2)C(=O)NCc1ccc(OC)cc1 (stereo not shown) [Example 1-46] |

Same assay, conditions: read-out: Inhibitory activity (G9a IC50)

| Compound | IC50 |
| --- | --- |
| Cc1c(C(=O)NC(CCC2CC2)C(=O)N2CCc3c(OCCCN4CCCCC4)cccc32)[nH]c2c1C(=O)CC(C)(C)C2 (stereo not shown) [Example 1-118] | ≥ 200 nM |
| Cc1c(C(=O)NC(CCC2CC2)C(=O)N2CCc3c(OC4CCN(C)CC4)cccc32)[nH]c2c1C(=O)CC(C)(C)C2 (stereo not shown) [Example 1-124] | 50 to 200 nM |
| CCCCC(NC(=O)c1[nH]c2c(c1C)C(=O)CC(C)(C)C2)C(=O)Nc1cccc(CN2CCCC2)c1 (stereo not shown) [Example 1-113] | < 50 nM |

The remaining lines, values ahead:

| IC50 | Compound |
| --- | --- |
| 50 to 200 nM | CCCCC(NC(=O)c1[nH]c2c(c1C)C(=O)CC(C)(C)C2)C(=O)Nc1ccc2c(c1)CCNC2 (stereo not shown) [Example 25-2] |
| ≥ 200 nM | CCCCC(NC(=O)c1[nH]c2c(c1C)C(=O)CC(C)(C)C2)C(=O)Nc1cccnc1CC (stereo not shown) [Example 6-23] |
| ≥ 200 nM | CCCCC(NC(=O)Cc1ccc(Cl)cc1)C(=O)Nc1ccc(OC2CCN(C)CC2)nc1 (stereo not shown) [Example 11-9] |
| ≥ 200 nM | CCCC[C@@H](NC(=O)c1[nH]c2c(c1C)C(=O)CC(C)(C)C2)C(=O)N[C@H](C)c1ccccc1 [Example 2-4] |
| ≥ 200 nM | Cc1c(C(=O)NC(CCC2CC2)C(=O)N2CCc3cc(CN4CCCCC4)ccc32)[nH]c2c1C(=O)CC(C)(C)C2 (stereo not shown) [Example 1-129] |
| ≥ 200 nM | COc1ccc(NC(=O)C(CCC2CC2)NC(=O)c2ccc(OCCN(C)C)cc2)cn1 (stereo not shown) [Example 6-67] |
| 50 to 200 nM | CCCC[C@H](NC(=O)c1[nH]c2c(c1CC)C(=O)CC(C)(C)C2)C(=O)N[C@@H](C)c1ccccc1 [Example 6-40] |
| < 50 nM | Cc1c(C(=O)NC(CCC2CC2)C(=O)NCc2cccc(CN(C)C)c2)[nH]c2c1C(=O)CC(C)(C)C2 (stereo not shown) [Example 1-148] |
| 50 to 200 nM | Cc1c(C(=O)NC(CCC2CC2)C(=O)NCc2ccccc2)[nH]c2c1C(=O)CC(C)(C)C2 (stereo not shown) [Example 6-18] |
| 50 to 200 nM | CCCCC(NC(=O)c1[nH]c2c(c1C)C(=O)CC(C)(C)C2)C(=O)NCc1cccc(CN(C)CCN(C)C)n1 (stereo not shown) [Example 6-3] |
| < 50 nM | COc1ccc(NC(=O)C(CCC2CC2)NC(=O)c2ccc(-n3ccc4cnccc43)cc2C)cn1 (stereo not shown) [Example 6-70] |
| ≥ 200 nM | CCN(CC)Cc1cccc2c1nc(C(CCC1CC1)NC(=O)c1[nH]c3c(c1C)C(=O)CC(C)(C)C3)n2C (stereo not shown) [Example 31-4] |
| ≥ 200 nM | COc1ccc(NC(=O)C(CCC2CC2)NC(=O)c2ccc(Nc3ccnc(OC)c3)cc2)cn1 (stereo not shown) [Example 6-64] |
| 50 to 200 nM | Cc1c(C(=O)NC(CCC2CC2)c2nc3c(CN4CCCC4)cccc3n2C)[nH]c2c1C(=O)CC(C)(C)C2 (stereo not shown) [Example 31-5] |
| 50 to 200 nM | CCCC[C@H](NC(=O)c1[nH]c2c(c1C(C)C)C(=O)CC(C)(C)C2)C(=O)Nc1ccccc1 [Example 6-36] |
| 50 to 200 nM | CCCCC(NC(=O)c1[nH]c2c(c1C)C(=O)CC(C)(C)C2)C(=O)Nc1ccc(OC2CNC2)cc1 (stereo not shown) [Example 26-6] |

| IC50 | Compound |
| --- | --- |
| ≥ 200 nM | CCCC[C@@H](CNc1ccccc1)NC(=O)c1[nH]c2c(c1C)C(=O)CC(C)(C)C2 [Example 17-1, (S)-3,6,6-trimethyl-4-oxo-N-(1-(phenylamino)hexan-2-yl)-4,5,6,7-tetrahydro-1H-indole-2-carboxamide] |
| ≥ 200 nM | COc1ccc(NC(=O)C(CCC2CC2)NC(=O)c2ccc(Nc3ccncc3)cn2)cn1 (stereo not shown) [Example 6-76] |
| ≥ 200 nM | Cc1c(C(=O)NC(CCC2CC2)c2nc3cccc(CN(C)C)c3n2C)[nH]c2c1C(=O)CC(C)(C)C2 (stereo not shown) [Example 31-1, N-[3-cyclopropyl-1-[7-[(dimethylamino)methyl]-1-methylbenzoimidazol-2-yl]propyl]-3,6,6-trimethyl-4-oxo-5,7-dihydro-1H-indole-2-carboxamide] |
| 50 to 200 nM | Cc1c(C(=O)NC(CCC2CC2)C(=O)Nc2ccc(F)nc2)[nH]c2c1C(=O)CC(C)(C)C2 (stereo not shown) [Example 6-12] |
| ≥ 200 nM | Cc1c(C(=O)N[C@H](CCC2CC2)C(=O)N[C@@H](C)c2ccccc2)[nH]c2c1C(=O)CC(C)(C)C2 [Example 13-2, N-((R)-4-Cyclopropyl-1-oxo-1-(((S)-1-phenylethyl)amino)butan-2-yl)-3,6,6-trimethyl-4-oxo-4,5,6,7-tetrahydro-1H-indole-2-carboxamide] |
| ≥ 200 nM | CCCC[C@@H](NC(=O)c1[nH]c2c(c1C)C(=O)CC(C)(C)C2)C(=O)N[C@@H](C)c1ccccc1 [Example 2-2, 3,6,6-trimethyl-4-oxo-N-((R)-1-oxo-1-(((S)-1-phenylethyl)amino)hexan-2-yl)-4,5,6,7-tetrahydro-1H-indol-2-carboxamide] |
| 50 to 200 nM | CCCC[C@H](NC(=O)c1[nH]c2c(c1CC)C(=O)CC(C)(C)C2)C(=O)N[C@@H](CO)c1ccccc1 [Example 6-46] |
| ≥ 200 nM | CCCC[C@H](NC(=O)c1[nH]c2c(c1C)C(=O)CC(C)(C)C2)C(=O)N1CCc2c(OCC3CCN(C)CC3)cccc21 [Example 6-105] |
| ≥ 200 nM | CCCCC(NC(=O)c1[nH]c2c(c1C)C(=O)CC(C)(C)C2)C(=O)NCc1ccc(CN2CCOCC2)cc1 (stereo not shown) [Example 18-5] |
| ≥ 200 nM | CCCCC(NC(=O)c1[nH]c2c(c1C)C(=O)CC(C)(C)C2)C(=O)NCc1ccc(C(=O)OC)cc1 (stereo not shown) [Example 6-21] |
| 50 to 200 nM | CCCCC(NC(=O)c1ccc(Nc2ccncc2)cc1)C(=O)Nc1ccc(OC)cc1 (stereo not shown) [Example 9-2] |
| 50 to 200 nM | Cc1c(C(=O)N[C@@H](CCC2CC2)C(=O)N2CCc3c(OCCN(C)C)cccc32)[nH]c2c1C(=O)CC(C)(C)C2 [Example 6-107] |
| < 50 nM | N#Cc1ccc(NC(=O)C(CCC2CC2)NC(=O)c2ccc(Nc3ccncc3)cc2)cn1 (stereo not shown) [Example 6-82] |
| ≥ 200 nM | Cc1c(C(=O)N[C@H](CCC2CC2)C(=O)N(C)[C@H](C)c2ccccc2)[nH]c2c1C(=O)CC(C)(C)C2 [Example 13-4] |
| ≥ 200 nM | Cc1c(C(=O)NC(CCC2CC2)C(=O)N(C)Cc2ccccc2)[nH]c2c1C(=O)CC(C)(C)C2 (stereo not shown) [Example 6-19] |

Source: US20230127046A1, “G9a INHIBITOR” (RIKEN, priority 2019, published 2023)
